Measurements as given in ChEMBL document CHEMBL1201862, “PubChem BioAssay data set” (2004).
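Briefly, cells in 96-well plates were exposed to five compound concentrations for 48 h, and endpoints were estimated by linear interpolation. GI50 = concentration required for 50% inhibition of growth.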 Activity calls are given as the source filed them. No stated cut-off is given here; in the data, active = GI50 up to about 1.1 µM and inactive = higher.

How the values were obtained:
Test in all cases: inhibition of tumour cell growth, NCI panel, 48 h
KM-20L2 = test system: KM-20L2
K562 = test system: K562
SW-620 = test system: SW-620
HL-60 = test system: HL-60
DMS-273 = test system: DMS-273
SK-OV-3 = test system: SK-OV-3
OVCAR-8 = test system: OVCAR-8
SK-MEL-28 = test system: SK-MEL-28
SK-MEL-5 = test system: SK-MEL-5
HOP-92 = test system: HOP-92
Malme-3M = test system: Malme-3M
SR = test system: SR
OVCAR-5 = test system: OVCAR-5
LXFL 529 = test system: LXFL 529
SN12C = test system: SN12C
RXF 393 = test system: RXF 393
RXF 631 = test system: RXF 631
UACC-257 = test system: UACC-257
RPMI-8226 = test system: RPMI-8226
CAKI-1 = test system: CAKI-1
A549 = test system: A549
SF-268 = test system: SF-268
HT-29 = test system: HT-29
SNB-78 = test system: SNB-78
NCI-H460 = test system: NCI-H460
HCT-116 = test system: HCT-116
UO-31 = test system: UO-31
HCT-15 = test system: HCT-15
UACC-62 = test system: UACC-62
DLD-1 = test system: DLD-1
SF-295 = test system: SF-295
SNB-19 = test system: SNB-19
OVCAR-3 = test system: OVCAR-3
LOX IMVI = test system: LOX IMVI
NCI-H23 = test system: NCI-H23
A498 = test system: A498
786-0 = test system: 786-0
EKVX = test system: EKVX
ACHN = test system: ACHN
HCC 2998 = test system: HCC 2998
NCI-H522 = test system: NCI-H522
COLO 205 = test system: COLO 205
SNB-75 = test system: SNB-75
IGROV-1 = test system: IGROV-1
HOP-62 = test system: HOP-62
KM12 = test system: KM12
OVCAR-4 = test system: OVCAR-4
M14 = test system: M14
NCI-H226 = test system: NCI-H226
TK-10 = test system: TK-10
DMS-114 = test system: DMS-114
XF498 = test system: XF498
SF-539 = test system: SF-539
M19-MEL = test system: M19-MEL
MOLT-4 = test system: MOLT-4
U-251 = test system: U-251
CCRF-CEM = test system: CCRF-CEM
SK-MEL-2 = test system: SK-MEL-2
HOP-18 = test system: HOP-18

COc1cc2c(c(OC)c1OC)-c1ccc(SC)c(=O)cc1[C@@H](NCc1cccc(C#N)c1)CC2
GI50 (KM-20L2): 13.1 nM (active)
GI50 (K562): 36.1 nM (active)
GI50 (SW-620): 13.2 nM (active)
GI50 (HL-60): 41.9 nM (active)
GI50 (DMS-273): 6.47 nM (active)
GI50 (SK-OV-3): 11.5 nM (active)
GI50 (OVCAR-8): 22.2 nM (active)
GI50 (SK-MEL-28): 22.1 nM (active)
GI50 (SK-MEL-5): 6.93 nM (active)
GI50 (HOP-92): 40.1 nM (active)
GI50 (Malme-3M): 23.2 nM (active)
GI50 (SR): 4.14 nM (active)
GI50 (OVCAR-5): 37 nM (active)
GI50 (LXFL 529): 14.7 nM (active)
GI50 (SN12C): 31.3 nM (active)
GI50 (RXF 393): 4.08 nM (active)
GI50 (RXF 631): 7.5 nM (active)
GI50 (UACC-257): 44.8 nM (active)
GI50 (RPMI-8226): 34.5 nM (active)
GI50 (CAKI-1): 7.5 nM (active)
GI50 (A549): 34.5 nM (active)
GI50 (SF-268): 16.4 nM (active)
GI50 (HT-29): 15.4 nM (active)
GI50 (SNB-78): 19.7 nM (active)
GI50 (NCI-H460): 26.8 nM (active)
GI50 (HCT-116): 17.3 nM (active)
GI50 (UO-31): 308 nM (active)
GI50 (HCT-15): 23.9 nM
GI50 (UACC-62): 6.68 nM (active)
GI50 (DLD-1): 24.5 nM (active)
GI50 (SF-295): 20.7 nM (active)
GI50 (SNB-19): 45 nM (active)
GI50 (OVCAR-3): 16.8 nM (active)
GI50 (LOX IMVI): 18.4 nM (active)
GI50 (NCI-H23): 17.9 nM (active)
GI50 (A498): 16.1 nM (active)
GI50 (786-0): 33.2 nM (active)
GI50 (EKVX): 97.3 nM (active)
GI50 (ACHN): 47 nM (active)
GI50 (HCC 2998): 19.8 nM (active)
GI50 (NCI-H522): 14.2 nM (active)
GI50 (COLO 205): 20.2 nM (active)
GI50 (SNB-75): 5.16 nM (active)
GI50 (IGROV-1): 57 nM (active)
GI50 (HOP-62): 33.4 nM (active)
GI50 (KM12): 5.28 nM (active)
GI50 (OVCAR-4): 7.5 nM (active)
GI50 (M14): 18.8 nM (active)
GI50 (NCI-H226): 22.6 nM (active)
GI50 (TK-10): 84.1 nM (active)
GI50 (DMS-114): 15.3 nM (active)
GI50 (XF498): 25.7 nM (active)
GI50 (SF-539): 14 nM (active)
GI50 (M19-MEL): 19.3 nM (active)
GI50 (MOLT-4): 32.8 nM (active)
GI50 (U-251): 17.8 nM (active)
GI50 (CCRF-CEM): 22.9 nM (active)
GI50 (SK-MEL-2): 30.4 nM (active)

CC(C)(C)OC(=O)N[C@H]1CC(O)c2ccccc2N(CC(=O)O)C1=O (stereo partly specified)
GI50 (KM-20L2): > 100000 nM (inactive)
GI50 (SW-620): > 100000 nM (inactive)
GI50 (HL-60): > 100000 nM (inactive)
GI50 (DMS-273): > 100000 nM (inactive)
GI50 (SK-OV-3): > 100000 nM (inactive)
GI50 (OVCAR-8): > 100000 nM (inactive)
GI50 (SK-MEL-28): > 100000 nM (inactive)
GI50 (SK-MEL-5): > 100000 nM (inactive)
GI50 (HOP-92): > 100000 nM (inactive)
GI50 (Malme-3M): > 100000 nM (inactive)
GI50 (SR): > 100000 nM (inactive)
GI50 (LXFL 529): > 100000 nM (inactive)
GI50 (HOP-18): > 100000 nM (inactive)
GI50 (SN12C): > 100000 nM (inactive)
GI50 (RXF 393): > 100000 nM (inactive)
GI50 (RXF 631): > 100000 nM (inactive)
GI50 (UACC-257): > 100000 nM (inactive)
GI50 (CAKI-1): > 100000 nM (inactive)
GI50 (A549): > 100000 nM (inactive)
GI50 (SF-268): > 100000 nM (inactive)
GI50 (HT-29): > 100000 nM (inactive)
GI50 (NCI-H460): > 100000 nM (inactive)
GI50 (HCT-116): > 100000 nM (inactive)
GI50 (UO-31): > 100000 nM (inactive)
GI50 (HCT-15): > 100000 nM
GI50 (UACC-62): > 100000 nM (inactive)
GI50 (DLD-1): > 100000 nM (inactive)
GI50 (SF-295): > 100000 nM (inactive)
GI50 (SNB-19): > 100000 nM (inactive)
GI50 (OVCAR-3): > 100000 nM (inactive)
GI50 (LOX IMVI): > 100000 nM (inactive)
GI50 (NCI-H23): > 100000 nM (inactive)
GI50 (786-0): > 100000 nM (inactive)
GI50 (EKVX): > 100000 nM (inactive)
GI50 (ACHN): > 100000 nM (inactive)
GI50 (HCC 2998): > 100000 nM (inactive)
GI50 (NCI-H522): > 100000 nM (inactive)
GI50 (COLO 205): > 100000 nM (inactive)
GI50 (SNB-75): > 100000 nM (inactive)
GI50 (IGROV-1): > 100000 nM (inactive)
GI50 (HOP-62): > 100000 nM (inactive)
GI50 (KM12): > 100000 nM (inactive)
GI50 (OVCAR-4): > 100000 nM (inactive)
GI50 (M14): > 100000 nM (inactive)
GI50 (NCI-H226): > 100000 nM (inactive)
GI50 (TK-10): > 100000 nM (inactive)
GI50 (DMS-114): > 100000 nM (inactive)
GI50 (XF498): > 100000 nM (inactive)
GI50 (SF-539): > 100000 nM (inactive)
GI50 (M19-MEL): > 100000 nM (inactive)
GI50 (MOLT-4): > 100000 nM (inactive)
GI50 (CCRF-CEM): > 100000 nM (inactive)
GI50 (SK-MEL-2): > 100000 nM (inactive)
